Activity calls are given as the source filed them. The calls are words filed in the database; no cut-off is given here.
Experiments:
[1] = Clearance in Sprague-Dawley rat at 5 mg/kg, iv; format: ADME, organism-based; settings: in vivo
[2] = AUC (0 to infinity) in Sprague-Dawley rat at 50 mg/kg, po; format: ADME, organism-based; set-up: time infinity, dose 50 mg/kg, route po; settings: in vivo
[3] = Metabolic stability in mouse liver microsomes assessed as rate constant; format: ADME, Microsome
[4] = Apparent permeability across basolateral to apical side in human Caco-2 cells assessed as drug recovery; format: ADME, cell-based; settings: read-out: Drug recovery
[5] = Toxicity in rat assessed as maximum tolerated dose; format: organism-based; settings: in vivo
[6] = target: Voltage-gated inwardly rectifying potassium channel KCNH2 (Homo sapiens, UniProt Q12809); experiment: Inhibition of human ERG
[7] = test system: Mus musculus; experiment: In vivo inhibition of IDO1/IDO2 in BALB/c mouse xenografted with human HCT-116 cells assessed as reduction in KYN level in serum by […]; format: functional, organism-based
[8] = test system: HCT-116; experiment: Antitumor immunity in BALB/c mouse xenografted with human HCT-116 cells assessed as live Treg cells in spleen by propidium iodide staining based flow cytometry analysis (reference value: 70.9 %); format: functional
[9] = test system: Mus musculus; experiment: In vivo inhibition of TDO in BALB/c mouse xenografted with human HCT-116 cells assessed as suppression of TDO expression in tumor by immunohistochemical assay; format: functional, organism-based
[10] = target: Tyrosine-protein kinase ABL1 (Homo sapiens) (UniProt P00519); experiment: Inhibition of ABL1 (unknown origin) at 1 uM
[11] = target: Calcium/calmodulin-dependent protein kinase type II subunit delta (Homo sapiens) (UniProt Q13557); experiment: Inhibition of CAMK2D (unknown origin) at 1 uM
[12] = target: Cyclin-Y/Cyclin-dependent kinase 16 (Homo sapiens) (UniProt Q00536+Q8ND76); experiment: Inhibition of CDK16/cyclin-Y (unknown origin) at 1 uM; format: protein-complex assay
[13] = target: CDK17/Cyclin-Y (Homo sapiens) (UniProt Q00537+Q8ND76); experiment: Inhibition of CDK17/cyclin-Y (unknown origin) at 1 uM; format: protein-complex assay
[14] = target: CDK2/Cyclin A2 (Homo sapiens) (UniProt P24941+P20248); experiment: Inhibition of CDK2/cyclin-A (unknown origin) at 1 uM; format: protein-complex assay
[15] = target: Serine/threonine-protein kinase Chk2 (Homo sapiens) (UniProt O96017); experiment: Inhibition of CHK2 (unknown origin) at 1 uM
[16] = target: Dual specificity protein kinase CLK4 (Homo sapiens) (UniProt Q9HAZ1); experiment: Inhibition of CLK4 (unknown origin) at 1 uM
[17] = target: Tyrosine-protein kinase CSK (Homo sapiens) (UniProt P41240); experiment: Inhibition of CSK (unknown origin) at 1 uM
[18] = target: Epidermal growth factor receptor (Homo sapiens) (UniProt P00533); experiment: Inhibition of EGFR (unknown origin) at 1 uM
[19] = target: Ephrin type-A receptor 6 (Homo sapiens) (UniProt Q9UF33); experiment: Inhibition of EPHA6 (unknown origin) at 1 uM
[20] = target: Mitogen-activated protein kinase kinase kinase kinase 4 (Homo sapiens) (UniProt O95819); experiment: Inhibition of HGK (unknown origin) at 1 uM
[21] = target: Mitogen-activated protein kinase kinase kinase kinase 1 (Homo sapiens) (UniProt Q92918); experiment: Inhibition of HPK1 (unknown origin) at 1 uM
[22] = target: Interleukin-1 receptor-associated kinase 1 (Homo sapiens) (UniProt P51617); experiment: Inhibition of IRAK1 (unknown origin) at 1 uM
Interleukin-1 receptor-associated kinase 1 (Homo sapiens), sequence (P51617 whole entry, looked up): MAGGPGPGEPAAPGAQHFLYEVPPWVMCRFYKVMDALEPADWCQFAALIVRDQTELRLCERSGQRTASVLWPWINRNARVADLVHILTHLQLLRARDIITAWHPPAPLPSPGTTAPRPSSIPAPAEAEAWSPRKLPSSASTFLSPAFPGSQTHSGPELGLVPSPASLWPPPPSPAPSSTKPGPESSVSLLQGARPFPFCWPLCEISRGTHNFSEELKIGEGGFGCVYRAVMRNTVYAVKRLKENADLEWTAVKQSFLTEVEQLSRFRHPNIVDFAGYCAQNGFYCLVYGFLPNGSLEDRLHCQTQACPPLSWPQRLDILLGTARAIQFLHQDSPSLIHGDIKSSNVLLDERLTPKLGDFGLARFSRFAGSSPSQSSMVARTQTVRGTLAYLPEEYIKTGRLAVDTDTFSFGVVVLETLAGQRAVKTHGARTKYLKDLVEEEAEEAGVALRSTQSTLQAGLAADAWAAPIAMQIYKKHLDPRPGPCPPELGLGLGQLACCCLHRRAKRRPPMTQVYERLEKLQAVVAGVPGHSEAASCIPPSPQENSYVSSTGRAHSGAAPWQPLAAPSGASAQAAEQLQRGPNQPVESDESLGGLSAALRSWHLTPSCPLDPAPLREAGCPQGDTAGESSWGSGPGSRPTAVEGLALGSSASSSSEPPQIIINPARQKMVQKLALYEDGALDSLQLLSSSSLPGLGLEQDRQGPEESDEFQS

[23] = target: Tyrosine-protein kinase ITK/TSK (Homo sapiens) (UniProt Q08881); experiment: Inhibition of ITK (unknown origin) at 1 uM
[24] = target: Tyrosine-protein kinase JAK3 (Homo sapiens) (UniProt P52333); experiment: Inhibition of JAK3 (unknown origin) at 1 uM
[25] = target: Tyrosine-protein kinase Lyn (Homo sapiens) (UniProt P07948); experiment: Inhibition of LYN-B (unknown origin) at 1 uM
[26] = target: Serine/threonine-protein kinase MARK2 (Homo sapiens) (UniProt Q7KZI7); experiment: Inhibition of MARK2 (unknown origin) at 1 uM
[27] = target: Mitogen-activated protein kinase kinase kinase 11 (Homo sapiens) (UniProt Q16584); experiment: Inhibition of MLK3 (unknown origin) at 1 uM
Mitogen-activated protein kinase kinase kinase 11 (Homo sapiens), sequence (Q16584 whole entry, looked up): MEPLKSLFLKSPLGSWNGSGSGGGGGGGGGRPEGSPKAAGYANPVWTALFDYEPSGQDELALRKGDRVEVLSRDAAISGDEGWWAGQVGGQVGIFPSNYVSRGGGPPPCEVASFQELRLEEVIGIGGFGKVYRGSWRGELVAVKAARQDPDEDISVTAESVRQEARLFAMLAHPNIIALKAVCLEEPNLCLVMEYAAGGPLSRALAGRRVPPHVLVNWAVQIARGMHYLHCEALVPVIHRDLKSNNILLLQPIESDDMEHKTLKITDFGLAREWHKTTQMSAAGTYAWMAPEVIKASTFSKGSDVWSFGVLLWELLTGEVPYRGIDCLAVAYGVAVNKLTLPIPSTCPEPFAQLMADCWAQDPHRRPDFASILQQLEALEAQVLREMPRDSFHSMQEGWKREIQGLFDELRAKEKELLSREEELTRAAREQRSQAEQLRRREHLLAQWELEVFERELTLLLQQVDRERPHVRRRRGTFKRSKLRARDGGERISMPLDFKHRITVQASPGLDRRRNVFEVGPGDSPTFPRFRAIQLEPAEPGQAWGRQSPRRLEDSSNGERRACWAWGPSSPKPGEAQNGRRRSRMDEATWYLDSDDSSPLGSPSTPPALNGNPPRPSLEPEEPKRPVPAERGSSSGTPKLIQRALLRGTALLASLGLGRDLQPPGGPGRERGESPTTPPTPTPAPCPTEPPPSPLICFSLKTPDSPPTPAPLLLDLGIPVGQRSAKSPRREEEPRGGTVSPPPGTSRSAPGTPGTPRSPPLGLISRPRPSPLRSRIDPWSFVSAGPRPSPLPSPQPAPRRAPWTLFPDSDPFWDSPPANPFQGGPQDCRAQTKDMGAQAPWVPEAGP

[28] = target: Serine/threonine-protein kinase 26 (Homo sapiens) (UniProt Q9P289); experiment: Inhibition of MST4 (unknown origin) at 1 uM
[29] = target: Serine/threonine-protein kinase Nek6 (Homo sapiens) (UniProt Q9HC98); experiment: Inhibition of NEK6 (unknown origin) at 1 uM
[30] = target: Serine/threonine-protein kinase N2 (Homo sapiens) (UniProt Q16513); experiment: Inhibition of PKN2 (unknown origin) at 1 uM
Serine/threonine-protein kinase N2 (Homo sapiens), sequence (Q16513 whole entry, looked up): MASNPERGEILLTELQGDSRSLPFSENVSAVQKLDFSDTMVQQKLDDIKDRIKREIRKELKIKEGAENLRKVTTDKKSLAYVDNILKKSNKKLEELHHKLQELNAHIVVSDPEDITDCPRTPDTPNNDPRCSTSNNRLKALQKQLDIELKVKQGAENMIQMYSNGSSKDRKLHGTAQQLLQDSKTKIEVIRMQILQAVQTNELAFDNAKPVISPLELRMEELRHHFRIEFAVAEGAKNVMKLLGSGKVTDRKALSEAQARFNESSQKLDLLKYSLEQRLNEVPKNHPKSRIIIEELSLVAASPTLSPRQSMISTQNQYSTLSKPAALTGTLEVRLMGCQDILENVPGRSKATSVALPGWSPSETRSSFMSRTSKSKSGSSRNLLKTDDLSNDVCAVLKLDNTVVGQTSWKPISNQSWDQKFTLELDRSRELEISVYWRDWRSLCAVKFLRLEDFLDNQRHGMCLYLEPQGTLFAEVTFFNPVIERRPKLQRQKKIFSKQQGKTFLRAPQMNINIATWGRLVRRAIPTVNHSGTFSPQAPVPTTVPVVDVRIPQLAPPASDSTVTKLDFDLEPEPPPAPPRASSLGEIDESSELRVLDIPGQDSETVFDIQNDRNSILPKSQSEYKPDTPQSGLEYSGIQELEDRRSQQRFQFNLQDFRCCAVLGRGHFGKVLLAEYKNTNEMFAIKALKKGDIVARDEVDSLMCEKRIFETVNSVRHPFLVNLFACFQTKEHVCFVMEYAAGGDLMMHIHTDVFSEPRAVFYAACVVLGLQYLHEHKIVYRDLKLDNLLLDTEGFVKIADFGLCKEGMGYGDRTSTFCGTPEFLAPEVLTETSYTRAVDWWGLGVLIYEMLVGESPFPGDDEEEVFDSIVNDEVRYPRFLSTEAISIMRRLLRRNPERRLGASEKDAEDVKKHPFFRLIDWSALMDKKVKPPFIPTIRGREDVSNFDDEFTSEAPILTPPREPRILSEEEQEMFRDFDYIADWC

[31] = target: Serine/threonine-protein kinase PLK2 (Homo sapiens) (UniProt Q9NYY3); experiment: Inhibition of PLK2 (unknown origin) at 1 uM
[32] = target: Serine/threonine-protein kinase PLK4 (Homo sapiens) (UniProt O00444); experiment: Inhibition of PLK4 (unknown origin) at 1 uM
[33] = target: Rho-associated protein kinase 2 (Homo sapiens) (UniProt O75116); experiment: Inhibition of ROCK2 (unknown origin) at 1 uM
[34] = target: Ribosomal protein S6 kinase alpha-6 (Homo sapiens) (UniProt Q9UK32); experiment: Inhibition of RSK4 (unknown origin) at 1 uM
Ribosomal protein S6 kinase alpha-6 (Homo sapiens), sequence (Q9UK32 whole entry): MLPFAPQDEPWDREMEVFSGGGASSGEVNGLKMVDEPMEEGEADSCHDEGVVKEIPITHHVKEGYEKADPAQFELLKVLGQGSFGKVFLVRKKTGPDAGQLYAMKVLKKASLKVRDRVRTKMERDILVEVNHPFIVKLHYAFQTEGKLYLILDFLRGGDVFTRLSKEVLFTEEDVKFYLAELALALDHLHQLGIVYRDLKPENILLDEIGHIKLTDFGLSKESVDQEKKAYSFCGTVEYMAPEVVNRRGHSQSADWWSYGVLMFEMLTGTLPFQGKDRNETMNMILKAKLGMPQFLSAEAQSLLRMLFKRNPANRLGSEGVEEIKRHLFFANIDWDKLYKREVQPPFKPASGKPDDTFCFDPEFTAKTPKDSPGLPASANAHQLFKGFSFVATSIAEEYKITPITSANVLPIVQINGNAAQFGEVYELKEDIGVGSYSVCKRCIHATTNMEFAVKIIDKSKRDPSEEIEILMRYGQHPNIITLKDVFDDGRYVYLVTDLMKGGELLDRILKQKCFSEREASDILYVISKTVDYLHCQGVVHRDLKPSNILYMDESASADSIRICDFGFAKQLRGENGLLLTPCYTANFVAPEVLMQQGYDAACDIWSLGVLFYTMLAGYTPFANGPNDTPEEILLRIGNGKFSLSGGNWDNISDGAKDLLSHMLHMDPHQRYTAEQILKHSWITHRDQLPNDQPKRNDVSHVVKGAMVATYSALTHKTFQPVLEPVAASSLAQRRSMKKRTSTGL

[35] = target: Serine/threonine-protein kinase Sgk2 (Homo sapiens) (UniProt Q9HBY8); experiment: Inhibition of SGK2 (unknown origin) at 1 uM
[36] = target: Serine/threonine-protein kinase 33 (Homo sapiens) (UniProt Q9BYT3); experiment: Inhibition of STK33 (unknown origin) at 1 uM
[37] = target: Serine/threonine-protein kinase TAO1 (Homo sapiens) (UniProt Q7L7X3); experiment: Inhibition of TAOK1 (unknown origin) at 1 uM
[38] = target: TGF-beta receptor type-2 (Homo sapiens) (UniProt P37173); experiment: Inhibition of TGFBR2 (unknown origin) at 1 uM
[39] = target: Serine/threonine-protein kinase tousled-like 1 (Homo sapiens) (UniProt Q9UKI8); experiment: Inhibition of TLK1 (unknown origin) at 1 uM
Serine/threonine-protein kinase tousled-like 1 (Homo sapiens), sequence (Q9UKI8 whole entry): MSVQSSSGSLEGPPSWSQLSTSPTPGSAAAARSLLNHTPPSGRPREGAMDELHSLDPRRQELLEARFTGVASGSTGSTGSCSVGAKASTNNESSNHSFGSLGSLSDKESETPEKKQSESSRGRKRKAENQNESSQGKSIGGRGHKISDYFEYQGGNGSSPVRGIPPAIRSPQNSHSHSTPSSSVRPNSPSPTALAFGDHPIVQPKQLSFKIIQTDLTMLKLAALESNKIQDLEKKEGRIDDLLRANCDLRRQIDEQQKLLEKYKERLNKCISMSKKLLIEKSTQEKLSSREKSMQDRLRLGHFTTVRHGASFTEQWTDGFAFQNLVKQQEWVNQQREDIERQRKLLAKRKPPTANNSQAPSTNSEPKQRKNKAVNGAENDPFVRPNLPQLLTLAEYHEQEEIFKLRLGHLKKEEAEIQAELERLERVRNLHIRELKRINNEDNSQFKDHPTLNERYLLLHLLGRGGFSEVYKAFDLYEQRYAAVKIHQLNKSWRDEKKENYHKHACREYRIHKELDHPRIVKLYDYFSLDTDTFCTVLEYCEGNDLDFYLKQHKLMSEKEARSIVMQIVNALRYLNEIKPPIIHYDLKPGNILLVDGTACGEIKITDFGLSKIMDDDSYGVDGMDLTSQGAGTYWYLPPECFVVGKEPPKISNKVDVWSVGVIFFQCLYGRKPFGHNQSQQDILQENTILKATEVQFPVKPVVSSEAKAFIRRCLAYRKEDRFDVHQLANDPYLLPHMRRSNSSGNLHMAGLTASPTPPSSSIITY

[40] = target: TRAF2 and NCK-interacting protein kinase (Homo sapiens) (UniProt Q9UKE5); experiment: Inhibition of TNIK (unknown origin) at 1 uM
[41] = target: NT-3 growth factor receptor (Homo sapiens) (UniProt Q16288); experiment: Inhibition of TRKC (unknown origin) at 1 uM
[42] = target: Tyrosine-protein kinase TXK (Homo sapiens) (UniProt P42681); experiment: Inhibition of TXK (unknown origin) at 1 uM
[43] = target: Leukocyte tyrosine kinase receptor (Homo sapiens) (UniProt P29376); experiment: Inhibition of TYK1 (unknown origin) at 1 uM
Leukocyte tyrosine kinase receptor (Homo sapiens), sequence (P29376 whole entry): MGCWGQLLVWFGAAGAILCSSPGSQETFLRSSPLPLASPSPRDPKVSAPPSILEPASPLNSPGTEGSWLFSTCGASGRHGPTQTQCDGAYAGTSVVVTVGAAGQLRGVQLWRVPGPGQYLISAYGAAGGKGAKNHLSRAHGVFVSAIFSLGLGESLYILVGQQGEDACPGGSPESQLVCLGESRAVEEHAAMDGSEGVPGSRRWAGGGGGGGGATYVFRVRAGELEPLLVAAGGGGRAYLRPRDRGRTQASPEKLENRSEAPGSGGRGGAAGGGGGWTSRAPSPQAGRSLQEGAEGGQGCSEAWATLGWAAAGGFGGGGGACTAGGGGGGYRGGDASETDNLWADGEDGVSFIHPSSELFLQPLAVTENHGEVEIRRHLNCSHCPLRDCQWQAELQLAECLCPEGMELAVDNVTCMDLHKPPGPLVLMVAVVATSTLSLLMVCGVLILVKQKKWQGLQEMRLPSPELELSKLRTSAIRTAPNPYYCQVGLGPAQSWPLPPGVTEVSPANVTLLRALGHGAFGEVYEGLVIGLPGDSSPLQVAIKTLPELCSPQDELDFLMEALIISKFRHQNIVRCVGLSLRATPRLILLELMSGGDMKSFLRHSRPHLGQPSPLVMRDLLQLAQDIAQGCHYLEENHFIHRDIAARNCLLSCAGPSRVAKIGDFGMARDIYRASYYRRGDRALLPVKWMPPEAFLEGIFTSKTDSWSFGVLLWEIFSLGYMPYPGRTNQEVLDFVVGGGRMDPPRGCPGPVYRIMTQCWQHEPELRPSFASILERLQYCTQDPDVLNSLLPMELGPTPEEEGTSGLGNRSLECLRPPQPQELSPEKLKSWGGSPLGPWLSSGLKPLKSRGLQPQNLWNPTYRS

[44] = target: Serine/threonine-protein kinase VRK1 (Homo sapiens) (UniProt Q99986); experiment: Inhibition of VRK1 (unknown origin) at 1 uM
[45] = target: Serine/threonine-protein kinase WNK3 (Homo sapiens) (UniProt Q9BYP7); experiment: Inhibition of WNK3 (unknown origin) at 1 uM

Structure (SMILES): OCCOCc1cn(CCNc2nonc2/C(=N/O)Nc2ccc(F)c(Br)c2)nn1
- clearance [1]: 27.5 mL/min/kg
- AUC(0-inf) [2]: 3950 ng·h/mL
- K [3]: 0.0161 min⁻¹
- recovery [4]: 112%
- MTD [5]: 2 mg/kg
- IC50 [6]: > 30 µM
- inhibition [7]: Active
- Activity [8]: 87.4%
- inhibition [9]: inactive
- inhibition [10]: inactive
- inhibition [11]: inactive
- inhibition [12]: inactive
- inhibition [13]: inactive
- inhibition [14]: inactive
- inhibition [15]: inactive
- inhibition [16]: inactive
- inhibition [17]: inactive
- inhibition [18]: inactive
- inhibition [19]: inactive
- inhibition [20]: inactive
- inhibition [21]: inactive
- inhibition [22]: inactive
- inhibition [23]: inactive
- inhibition [24]: inactive
- inhibition [25]: inactive
- inhibition [26]: inactive
- inhibition [27]: inactive
- inhibition [28]: inactive
- inhibition [29]: inactive
- inhibition [30]: inactive
- inhibition [31]: inactive
- inhibition [32]: inactive
- inhibition [33]: inactive
- inhibition [34]: inactive
- inhibition [35]: inactive
- inhibition [36]: inactive
- inhibition [37]: inactive
- inhibition [38]: inactive
- inhibition [39]: inactive
- inhibition [40]: inactive
- inhibition [41]: inactive
- inhibition [42]: inactive
- inhibition [43]: inactive
- inhibition [44]: inactive
- inhibition [45]: inactive

Source: ChEMBL document CHEMBL5055685, “Discovery of the First Potent IDO1/IDO2 Dual Inhibitors: A Promising Strategy for Cancer Immunotherapy” (J Med Chem, 2021)
